One data set has as its target T1, rat UT-A1 (Rattus norvegicus, UniProt Q62668).
T1 construct: expressed in transfected cells
T1 sequence (Q62668 1-929): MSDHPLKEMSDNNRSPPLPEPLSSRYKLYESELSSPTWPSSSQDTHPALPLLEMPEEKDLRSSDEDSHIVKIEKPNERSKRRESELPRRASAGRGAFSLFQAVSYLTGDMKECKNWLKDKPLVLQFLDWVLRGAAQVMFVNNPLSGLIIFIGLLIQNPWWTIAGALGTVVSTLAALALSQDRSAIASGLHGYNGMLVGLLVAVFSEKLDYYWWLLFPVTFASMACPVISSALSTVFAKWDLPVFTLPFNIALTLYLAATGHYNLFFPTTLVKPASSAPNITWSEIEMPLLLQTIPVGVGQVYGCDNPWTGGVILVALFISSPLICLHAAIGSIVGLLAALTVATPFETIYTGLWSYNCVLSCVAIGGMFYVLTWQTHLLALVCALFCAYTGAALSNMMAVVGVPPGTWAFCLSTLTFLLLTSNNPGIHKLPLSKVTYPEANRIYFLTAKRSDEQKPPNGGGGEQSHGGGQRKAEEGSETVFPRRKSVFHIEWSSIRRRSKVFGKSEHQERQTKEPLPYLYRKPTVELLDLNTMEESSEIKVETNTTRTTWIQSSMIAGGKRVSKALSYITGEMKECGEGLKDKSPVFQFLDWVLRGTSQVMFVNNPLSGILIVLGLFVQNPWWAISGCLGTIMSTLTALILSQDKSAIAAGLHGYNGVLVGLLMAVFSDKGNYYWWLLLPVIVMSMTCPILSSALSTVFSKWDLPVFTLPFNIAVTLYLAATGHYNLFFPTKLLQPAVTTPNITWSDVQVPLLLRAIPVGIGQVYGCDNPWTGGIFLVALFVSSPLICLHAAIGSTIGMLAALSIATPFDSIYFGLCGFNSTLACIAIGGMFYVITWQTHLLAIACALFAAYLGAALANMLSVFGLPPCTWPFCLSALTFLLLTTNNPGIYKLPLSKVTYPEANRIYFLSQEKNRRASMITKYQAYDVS
Nature of the data set: Transwell assay of UT-A1 inhibition in UT-A1-MDCK cells. The class given is cell-based. The note with it: read-out: IC50 against UT-A1-mediated urea permeability. Here is the method:
MDCK cells stably expressing rat UT-A1 or UT-B were cultured in DMEM supplemented with 10% FBS, and the mRNA levels of UT-A1 and UT-B were measured in our previous research. Urea flux was assessed according to previously established methods. MDCK cells (2 × 10^5 cells/cm^2) were grown on 12 mm collagen-coated Costar Transwell inserts (0.4 μm pore size, Corning) for 4 d at 37 °C in the presence of 5% CO2. Once the cells on the apical side formed a tight monolayer (transepithelial resistance 1 kΩ/cm^2), PBS (pH = 7.4, containing 10 μmol/L forskolin) with E3 or DMSO was added to the top (0.25 mL) and bottom (1 mL) compartments, and the cultures were incubated in the absence of urea for 30 min at 37 °C. As UT-B is located in the plasma membrane while UT-A1 resides in the cytoplasm, forskolin was used to stimulate the translocation of UT-A1 from the cytoplasm to the membrane for urea transport. Subsequently, the solution in the bottom compartment was replaced with PBS (pH 7.4, containing 10 μmol/L forskolin and E3 or DMSO) supplemented with 15 mmol/L urea. Apical fluid samples (5 μL) were collected at 0, 1, 3, 5, 10, 15, 20, 30, 40, 50, and 60 min. The samples were subjected to an assay for urea (Urea Colorimetric Assay Kit (Diacetyl Oxime Method), Elabscience, Wuhan, China) according to the kit procedure. Then, the inhibition rate was calculated as described previously.

The next data set in a line: Blood stability, rabbit. Type of data set: in vitro ADME. The note with it: plasma, n=3. Here is the method: (§1) Plasma from mice, rats, rabbits, and humans was obtained from blood after centrifugation at 3000 r/min for 10 min. Simulated gastric fluid (SGF, pH = 1, containing pepsin) and simulated intestinal fluid (SIF, pH = 6.8, containing trypsin) were configured previously in the experiments. SD rats and mice were collected, and after removing the mucus layer from the small intestine and colon, 20 times the volume of liquid bacterial culture medium was added. An intestinal microbiota suspension was obtained after anaerobic cultivation on a shaking table at 37 °C for 12 h. In the aforementioned systems, E3 was added at a final concentration of 1 μmol/L at 37 °C for different incubation times (0, 10, 20, 30, 60, 120, and 240 min). In liver metabolic stability assays, E3 was incubated with liver microsomes or liver homogenate from mice or rats for 60 min at 37 °C. The stop solution, 5 ng/mL tolbutamide (internal standard, IS) in acetonitrile, was added to stop the metabolic process. Post-centrifugation (18,000× g, 10 min, 4 °C), supernatants were subjected to liquid chromatography–tandem mass spectrometry (LC–MS/MS). Analyte-to-IS peak area ratios quantified residual percentages via Equation (2):Remaining% = (E3peak area/ISpeak area at different time)/(E3peak area/ISpeak area at 0 min) × 100%.(2)

A further data set in a line: Blood stability, human. The class given is in vitro ADME. The note with it: plasma, n=3. Here is the method:
as §1

Another data set addresses T2, hERG K+ channel (Homo sapiens, UniProt Q12809).
T2 construct: expressed in transfected cells; host or cells: CHO-hERG cells
Nature of the data set: hERG K+ channel tail current, QPatch, CHO-hERG cells. The class given is cell-based. Here is the method: CHO-hERG cells were maintained in F12 medium (Gibco, Thermo Fisher Scientific, Waltham, MA, USA) containing 10% FBS and 0.5 mg/mL Geneticin (Invitrogen, Thermo Fisher Scientific, Waltham, MA, USA) under standard culture conditions (37 °C, 5% CO2). Cells were seeded 2 days prior to reaching 70% confluency, then washed with PBS and detached using 5 mL Detachin (Genlantis, San Diego, CA, USA) at 37 °C for 2~3 min. Cell suspensions (2 × 10^6 cells/mL in F12) were prepared and equilibrated for 20 min in the QStir station of the QPatch-16 system (Sophion Bioscience, Copenhagen, Denmark) before electrophysiological recordings.
hERG channel tail currents were assessed using the QPatch automated platform. Recording solutions contained (mM): Internal: KCl 120, CaCl2 5.374, MgCl2 1.75, KOH 31.25, EGTA 10, HEPES 10, Na2ATP 4 (pH 7.2); External: NaCl 145, KCl 4, MgCl2 1, CaCl2 2, HEPES 10, glucose 10 (pH 7.4)
Cells were voltage-clamped at −80 mV with series resistance monitored during −100 mV hyperpolarization. The stimulation protocol included: (1) 200 ms baseline at −50 mV; (2) 2s depolarization to +20 mV; and (3) tail current recording at −50 mV. Signals were acquired at 2 kHz through the integrated Bessel filter. Concentration-response relationships were established by sequential compound applications bracketed with saline controls for normalization.
A general note: hERG is a cardiac potassium channel; its block is linked to QT prolongation.

The structures appear in SMILES notation. Where only a bound is given, the exact number is not on record here.

T2 sequence (Q12809 whole entry): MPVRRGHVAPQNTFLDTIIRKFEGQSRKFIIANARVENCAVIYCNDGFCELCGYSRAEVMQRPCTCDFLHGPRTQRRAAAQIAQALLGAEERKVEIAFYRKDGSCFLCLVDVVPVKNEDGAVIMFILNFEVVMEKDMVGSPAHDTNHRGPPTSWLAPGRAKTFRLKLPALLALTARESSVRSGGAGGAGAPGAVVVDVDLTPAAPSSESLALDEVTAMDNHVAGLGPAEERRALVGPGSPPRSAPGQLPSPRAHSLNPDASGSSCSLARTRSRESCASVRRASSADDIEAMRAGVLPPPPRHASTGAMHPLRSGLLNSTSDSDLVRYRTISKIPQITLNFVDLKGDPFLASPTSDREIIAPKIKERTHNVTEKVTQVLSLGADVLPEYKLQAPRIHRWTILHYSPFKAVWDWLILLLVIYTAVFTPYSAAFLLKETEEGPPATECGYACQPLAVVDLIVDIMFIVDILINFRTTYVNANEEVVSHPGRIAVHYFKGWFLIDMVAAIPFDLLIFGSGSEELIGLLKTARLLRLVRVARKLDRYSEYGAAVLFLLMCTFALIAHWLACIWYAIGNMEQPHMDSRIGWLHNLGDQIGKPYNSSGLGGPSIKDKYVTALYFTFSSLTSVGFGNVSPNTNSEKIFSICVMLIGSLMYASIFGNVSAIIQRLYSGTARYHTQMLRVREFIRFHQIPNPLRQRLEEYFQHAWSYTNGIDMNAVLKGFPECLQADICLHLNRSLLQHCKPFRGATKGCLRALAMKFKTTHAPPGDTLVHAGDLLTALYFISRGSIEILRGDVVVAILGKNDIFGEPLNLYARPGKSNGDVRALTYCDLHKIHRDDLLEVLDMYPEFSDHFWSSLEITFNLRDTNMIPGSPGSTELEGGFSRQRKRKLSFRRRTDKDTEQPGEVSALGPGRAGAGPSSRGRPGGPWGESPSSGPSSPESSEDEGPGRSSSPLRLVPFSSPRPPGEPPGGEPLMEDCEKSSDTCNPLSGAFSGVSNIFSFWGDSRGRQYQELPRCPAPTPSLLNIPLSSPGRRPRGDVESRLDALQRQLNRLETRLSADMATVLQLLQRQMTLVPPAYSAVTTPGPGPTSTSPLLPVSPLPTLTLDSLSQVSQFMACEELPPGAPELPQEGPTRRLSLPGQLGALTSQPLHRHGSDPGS

For `CC(=O)c1ccc(C(=O)Nc2cccc(NS(=O)(=O)c3ccccc3)c2)o1` [Compound E3, 5-acetyl-N-(3-(phenylsulfonamido)phenyl)furan-2-carboxamide], the IC50 (usually the concentration that inhibits the measured activity by half) on rat UT-A1 is 18 nM; on hERG K+ channel, above 33300 nM. The amount remaining (usually what is left of the initial amount, in per cent) at 1 μmol/L was determined as 35.7% in “Blood stability, rabbit” and 54.1% in the data set “Blood stability, human”.

Values taken from paper PMC12024912, “Druggability Studies of Benzene Sulfonamide Substituted Diarylamide (E3) as a Novel Diuretic” (Biomedicines, 2025).
